# In patent US11685746B2, “Heteroaryl compounds for treating Huntington's disease” (PTC THERAPEUTICS, INC., priority 2018, dated 2023):
# pIC50: −log10 of the molar value.
# System: Endogenous Huntingtin Protein
# Assay: Endogenous Huntingtin Protein Assay (MSD plates, MW1 or MAB2166 capture antibody)
# Type: cell-based
# Conditions: Table 1
# Outline: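 Endogenous huntingtin was captured overnight at 4° C on wells coated with 1 μg/mL MW1 (polyglutamine-specific) or MAB2166. Detection used rabbit #5656S and then goat anti-rabbit SULFO-TAG, both at 0.25 μg/mL and 1 h at room temperature. Plates were imaged on the MSD system in read buffer T.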
row,Compound,pIC50
1,"CN(c1nc2sc(-n3ccc(-c4cn[nH]c4)cc3=O)nc2s1)C1CCNCC1 [Compound 188, 1-{5-[methyl(piperidin-4-yl)amino][1,3]thiazolo[5,4-d][1,3]thiazol-2-yl}-4-(1H-pyrazol-4-yl)pyridin-2(1H)-one]",≥ 7.00
2,"Oc1cc(-c2cn[nH]c2)cnc1-c1nc2sc(N3CCC34CCNCC4)nc2s1 [Compound 189, 2-[5-(1,7-diazaspiro[3.5]nonan-1-yl)[1,3]thiazolo[5,4-d][1,3]thiazol-2-yl]-5-(1H-pyrazol-4-yl)pyridin-3-ol]",6.30 to 7.00
3,"Cc1cnn(-c2cnc(-c3nc4sc(N(C)[C@@H]5C[C@H]6CC[C@@H](C5)N6)nc4s3)c(O)c2)c1 [Compound 190, 2-(5-{[(1R,3s,5S)-8-azabicyclo[3.2.1]octan-3-yl](methyl)amino}[1,3]thiazolo[5,4-d][1,3]thiazol-2-yl)-5-(4-methyl-1H-pyrazol-1-yl)pyridin-3-ol]",≥ 7.00
4,"CN(c1nc2sc(-c3ncc(-c4ccn(C)c(=O)c4)cc3O)nc2s1)[C@@H]1C[C@H]2CC[C@@H](C1)N2 [Compound 191, 6-(5-{[(1R,3s,5S)-8-azabicyclo[3.2.1]octan-3-yl](methyl)amino}[1,3]thiazolo[5,4-d][1,3]thiazol-2-yl)-5-hydroxy-1′-methyl[3,4′-bipyridin]-2′(1′H)-one]",≥ 7.00
5,"Oc1cc(-c2cn[nH]c2)cnc1-c1nc2sc(N3CC4(CCCNC4)C3)nc2s1 [Compound 192, 2-[5-(2,6-diazaspiro[3.5]nonan-2-yl)[1,3]thiazolo[5,4-d][1,3]thiazol-2-yl]-5-(1H-pyrazol-4-yl)pyridin-3-ol]",≥ 7.00
6,"CN(c1nc2sc(-c3ncc(-n4cc(F)cn4)cc3O)nc2s1)[C@@H]1C[C@H]2CC[C@@H](C1)N2 [Compound 193, 2-(5-{[(1R,3s,5S)-8-azabicyclo[3.2.1]octan-3-yl](methyl)amino}[1,3]thiazolo[5,4-d][1,3]thiazol-2-yl)-5-(4-fluoro-1H-pyrazol-1-yl)pyridin-3-ol]",≥ 7.00
7,"CN(c1nc2sc(-c3ncc(-c4cn[nH]c4)cn3)nc2s1)[C@@H]1C[C@H]2CC[C@@H](C1)N2 [Compound 194, N-[(1R,3s,5S)-8-azabicyclo[3.2.1]octan-3-yl]-N-methyl-5-[5-(1H-pyrazol-4-yl)pyrimidin-2-yl][1,3]thiazolo[5,4-d][1,3]thiazol-2-amine]",≥ 7.00
8,"CN(c1nc2sc(-n3ccc(-c4cn[nH]c4)cc3=O)nc2s1)[C@@H]1C[C@H]2CC[C@@H](C1)N2 [Compound 195, 1-(5-{[(1R,3s,5S)-8-azabicyclo[3.2.1]octan-3-yl](methyl)amino}[1,3]thiazolo[5,4-d][1,3]thiazol-2-yl)-4-(1H-pyrazol-4-yl)pyridin-2(1H)-one]",≥ 7.00
9,"CN1CCC2(CC1)CN(c1nc3sc(-c4ncc(-c5cn[nH]c5)cc4O)nc3s1)C2 [Compound 196, 2-[5-(7-methyl-2,7-diazaspiro[3.5]nonan-2-yl)[1,3]thiazolo[5,4-d][1,3]thiazol-2-yl]-5-(1H-pyrazol-4-yl)pyridin-3-ol]",≥ 7.00
10,"Oc1cc(-c2cn[nH]c2)cnc1-c1nc2sc(N3CC4(CC5CCC(C4)N5)C3)nc2s1 [Compound 197, 5-(1H-pyrazol-4-yl)-2-[5-(spiro[8-azabicyclo[3.2.1]octane-3,3′-azetidin]-1′-yl)[1,3]thiazolo[5,4-d][1,3]thiazol-2-yl]pyridin-3-ol]",5.52 to 6.00
11,"Oc1cc(-c2cn[nH]c2)ccc1-c1nc2sc(N3CC4(CC5CCC(C4)N5)C3)nc2s1 [Compound 198, 5-(1H-pyrazol-4-yl)-2-[5-(spiro[8-azabicyclo[3.2.1]octane-3,3′-azetidin]-1′-yl)[1,3]thiazolo[5,4-d][1,3]thiazol-2-yl]phenol]",6.00 to 6.30
12,"Cc1ncc(-c2cnc(-c3nc4sc(N(C)[C@@H]5C[C@H]6CC[C@@H](C5)N6)nc4s3)c(O)c2)s1 [Compound 199, 2-(5-{[(1R,3s,5S)-8-azabicyclo[3.2.1]octan-3-yl](methyl)amino}[1,3]thiazolo[5,4-d][1,3]thiazol-2-yl)-5-(2-methyl-1,3-thiazol-5-yl)pyridin-3-ol]",≥ 7.00
13,"COc1cc(-c2cn[nH]c2)ccc1-c1nc2sc(N(C)C3CCNCC3)nc2s1 [Compound 200, 5-[2-methoxy-4-(1H-pyrazol-4-yl)phenyl]-N-methyl-N-(piperidin-4-yl)[1,3]thiazolo[5,4-d][1,3]thiazol-2-amine]",5.52 to 6.00
14,"CN(c1nc2sc(-c3ncc(-c4cn[nH]c4)cn3)nc2s1)C1CCNCC1 [Compound 201, N-methyl-N-(piperidin-4-yl)-5-[5-(1H-pyrazol-4-yl)pyrimidin-2-yl][1,3]thiazolo[5,4-d][1,3]thiazol-2-amine]",6.00 to 6.30
15,"CN(c1nc2sc(-c3ccc(-c4cn[nH]c4)cc3O)nc2s1)[C@H]1CCN[C@@H](CO)C1 [Compound 202, 2-(5-{[(2R,4S)-2-(hydroxymethyl)piperidin-4-yl](methyl)amino}[1,3]thiazolo[5,4-d][1,3]thiazol-2-yl)-5-(1H-pyrazol-4-yl)phenol]",≥ 7.00
16,"CN(c1nc2sc(-c3ncc(-c4cn[nH]c4)cc3O)nc2s1)[C@@H]1C[C@H]2CC[C@@H](C1)N2 [Compound 203, 2-(5-{[(1R,3s,5S)-8-azabicyclo[3.2.1]octan-3-yl](methyl)amino}[1,3]thiazolo[5,4-d][1,3]thiazol-2-yl)-5-(1H-pyrazol-4-yl)pyridin-3-ol]",≥ 7.00

row,Compound,pIC50
1,"CN(c1nc2sc(-c3ncc(-c4cn[nH]c4)cc3O)nc2s1)C1CCN(C2CC2)CC1 [Compound 204, 2-{5-[(1-cyclopropylpiperidin-4-yl)(methyl)amino][1,3]thiazolo[5,4-d][1,3]thiazol-2-yl}-5-(1H-pyrazol-4-yl)pyridin-3-ol]",6.30 to 7.00
2,"CC(C)N1CCC(N(C)c2nc3sc(-c4ncc(-c5cn[nH]c5)cc4O)nc3s2)CC1 [Compound 205, 2-(5-{methyl[1-(propan-2-yl)piperidin-4-yl]amino}[1,3]thiazolo[5,4-d][1,3]thiazol-2-yl)-5-(1H-pyrazol-4-yl)pyridin-3-ol]",≥ 7.00
3,"CCCN1CCC(N(C)c2nc3sc(-c4ncc(-c5cn[nH]c5)cc4O)nc3s2)CC1 [Compound 206, 2-{5-[methyl(1-propylpiperidin-4-yl)amino][1,3]thiazolo[5,4-d][1,3]thiazol-2-yl}-5-(1H-pyrazol-4-yl)pyridin-3-ol]",≥ 7.00
4,"CCN1CCC(N(C)c2nc3sc(-c4ncc(-c5cn[nH]c5)cc4O)nc3s2)CC1 [Compound 207, 2-{5-[(1-ethylpiperidin-4-yl)(methyl)amino][1,3]thiazolo[5,4-d][1,3]thiazol-2-yl}-5-(1H-pyrazol-4-yl)pyridin-3-ol]",≥ 7.00
5,"Oc1cc(-c2cn[nH]c2)ccc1-c1nc2sc(C3CCNCC3)nc2s1 [Compound 208, 2-[5-(piperidin-4-yl)[1,3]thiazolo[5,4-d][1,3]thiazol-2-yl]-5-(1H-pyrazol-4-yl)phenol]",5.52 to 6.00
6,"Oc1cc(-c2cn[nH]c2)cnc1-c1nc2sc(N3CC4(CCNCC4)C3)nc2s1 [Compound 209, 2-[5-(2,7-diazaspiro[3.5]nonan-2-yl)[1,3]thiazolo[5,4-d][1,3]thiazol-2-yl]-5-(1H-pyrazol-4-yl)pyridin-3-ol]",≥ 7.00
7,"CN(c1nc2sc(-c3ncc(-c4ccc5nncn5c4)cc3O)nc2s1)C1CCNCC1 [Compound 210, 2-{5-[methyl(piperidin-4-yl)amino][1,3]thiazolo[5,4-d][1,3]thiazol-2-yl}-5-([1,2,4]triazolo[4,3-a]pyridin-6-yl)pyridin-3-ol]",5.05 to 5.52
8,"CN1C[C@@H]2CN(c3nc4sc(-c5ccc(-c6cn[nH]c6)cc5O)nc4s3)C[C@@H]2C1 [Compound 211, 2-{5-[(3aR,6aS)-5-methylhexahydropyrrolo[3,4-c]pyrrol-2(1H)-yl][1,3]thiazolo[5,4-d][1,3]thiazol-2-yl}-5-(1H-pyrazol-4-yl)phenol]",5.52 to 6.00
9,"CN(c1nc2sc(-c3ncc(-n4cncn4)cc3O)nc2s1)C1CCNCC1 [Compound 212, 2-{5-[methyl(piperidin-4-yl)amino][1,3]thiazolo[5,4-d][1,3]thiazol-2-yl}-5-(1H-1,2,4-triazol-1-yl)pyridin-3-ol]",6.30 to 7.00
10,"CN(c1nc2sc(-c3ncc(-c4cn[nH]c4)cc3O)nc2s1)[C@H]1CCNC1 [Compound 213, 2-(5-{methyl[(3S)-pyrrolidin-3-yl]amino}[1,3]thiazolo[5,4-d][1,3]thiazol-2-yl)-5-(1H-pyrazol-4-yl)pyridin-3-ol]",≥ 7.00
11,"CN(c1nc2sc(-c3ncc(-n4nccn4)cc3O)nc2s1)C1CCNCC1 [Compound 214, 2-{5-[methyl(piperidin-4-yl)amino][1,3]thiazolo[5,4-d][1,3]thiazol-2-yl}-5-(2H-1,2,3-triazol-2-yl)pyridin-3-ol]",6.00 to 6.30
12,"CN(c1nc2sc(-c3ncc(-n4ccnn4)cc3O)nc2s1)C1CCNCC1 [Compound 215, 2-{5-[methyl(piperidin-4-yl)amino][1,3]thiazolo[5,4-d][1,3]thiazol-2-yl}-5-(1H-1,2,3-triazol-1-yl)pyridin-3-ol]",6.30 to 7.00
13,"CN(c1nc2sc(-c3ncc(-c4cnsc4)cc3O)nc2s1)C1CCNCC1 [Compound 216, 2-{5-[methyl(piperidin-4-yl)amino][1,3]thiazolo[5,4-d][1,3]thiazol-2-yl}-5-(1,2-thiazol-4-yl)pyridin-3-ol]",≥ 7.00
14,"CN1CCC(N(C)c2nc3sc(-c4ncc(-c5cn[nH]c5)cc4O)nc3s2)CC1 [Compound 217, 2-{5-[methyl(1-methylpiperidin-4-yl)amino][1,3]thiazolo[5,4-d][1,3]thiazol-2-yl}-5-(1H-pyrazol-4-yl)pyridin-3-ol]",≥ 7.00
15,"CCN(c1nc2sc(-c3ncc(-c4cn[nH]c4)cc3O)nc2s1)C1CCN(C)CC1 [Compound 218, 2-{5-[ethyl(1-methylpiperidin-4-yl)amino][1,3]thiazolo[5,4-d][1,3]thiazol-2-yl}-5-(1H-pyrazol-4-yl)pyridin-3-ol]",≥ 7.00
16,"Cc1n[nH]cc1-c1cnc(-c2nc3sc(N(C)C4CCNCC4)nc3s2)c(O)c1 [Compound 219, 2-{5-[methyl(piperidin-4-yl)amino][1,3]thiazolo[5,4-d][1,3]thiazol-2-yl}-5-(3-methyl-1H-pyrazol-4-yl)pyridin-3-ol]",≥ 7.00
